Targets include Carbonic anhydrase 1 (Homo sapiens, UniProt P00915); Carbonic anhydrase 9 (Homo sapiens, UniProt Q16790); Carbonic anhydrase 2 (Homo sapiens, UniProt P00918).

Chain of Carbonic anhydrase 1 (P00915 whole entry): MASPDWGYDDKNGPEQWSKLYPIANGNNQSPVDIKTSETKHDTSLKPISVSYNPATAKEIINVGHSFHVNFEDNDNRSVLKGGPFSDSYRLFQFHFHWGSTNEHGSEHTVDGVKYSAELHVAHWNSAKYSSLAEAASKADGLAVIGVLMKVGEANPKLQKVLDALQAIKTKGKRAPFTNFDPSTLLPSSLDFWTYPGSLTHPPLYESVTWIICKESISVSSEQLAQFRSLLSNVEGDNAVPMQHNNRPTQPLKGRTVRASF

Regarding `O=C(N/N=C/c1ccccc1[N+](=O)[O-])Nc1n[nH]c(=S)s1`, the Ki – broadly, a measure of affinity in units of concentration, obtained from inhibition or displacement – turned out to be 223 µM on Carbonic anhydrase 1, 24 µM at Carbonic anhydrase 9 and 433 µM on Carbonic anhydrase 2.
For `COc1ccc(/C=N/NC(=O)Nc2n[nH]c(=S)s2)cc1`, the Ki on Carbonic anhydrase 9 came to 24 µM; on Carbonic anhydrase 2, 350 µM.
For `O=C(N/N=C/c1ccccc1)Nc1n[nH]c(=S)s1`, in that order: 23 µM and 354 µM.
In the same order, the values of `COc1cc(/C=N/NC(=O)Nc2n[nH]c(=S)s2)ccc1O` are 26 µM and 386 µM.
For `O=C(N/N=C/c1cccc(Br)c1)Nc1n[nH]c(=S)s1`, in that order: 10.1 µM and 236 µM.
Take `O=C(N/N=C/c1ccc(Br)cc1)Nc1n[nH]c(=S)s1`: the values for the Ki on Carbonic anhydrase 9 and at Carbonic anhydrase 2 were 22 µM and 360 µM, respectively.
As for `CN(C)c1ccccc1/C=N/NC(=O)Nc1n[nH]c(=S)s1`, the Ki on Carbonic anhydrase 1 turned out to be 125 µM; on Carbonic anhydrase 9, 3.35 µM.
For the compound `C/C(=N\NC(=O)Nc1n[nH]c(=S)s1)c1ccc(Br)cc1`, the Ki on Carbonic anhydrase 9 was found to be 6.85 µM.
The same measure, in the same setting: the value for `C/C(=N\NC(=O)Nc1n[nH]c(=S)s1)c1ccc([N+](=O)[O-])cc1` was 7.54 µM; that for `O=C(N/N=C/c1ccco1)Nc1n[nH]c(=S)s1` was 5.75 µM.
On the same count and under the same terms, the value for `C/C(=N\NC(=O)Nc1n[nH]c(=S)s1)c1ccccc1` was 7.44 µM.
Compound `C/C(=N\NC(=O)Nc1n[nH]c(=S)s1)c1ccc(C)cc1` showed a Ki at Carbonic anhydrase 9 of 149 µM.
In the case of `C/C(=N\NC(=O)Nc1n[nH]c(=S)s1)c1ccc(O)cc1`, the values for the Ki at Carbonic anhydrase 9 and on Carbonic anhydrase 2 were 21 µM and 350 µM, respectively.
Compound `O=C(NN=C(c1ccccc1)c1ccccc1)Nc1n[nH]c(=S)s1` displayed a Ki at Carbonic anhydrase 9 of 8.43 µM.
`COc1ccc(/C(C)=N/NC(=O)Nc2n[nH]c(=S)s2)cc1`: the values for the Ki on Carbonic anhydrase 9 and on Carbonic anhydrase 2 were 20 µM and 346 µM, respectively.
In the case of `O=C(NN=C1C(=O)Nc2ccc(Br)cc21)Nc1nnc(S)s1`, the Ki at Carbonic anhydrase 9 is 7.18 µM.
Still for that read-out and setting: the same measure for `O=C(NN=C1C(=O)Nc2ccc([N+](=O)[O-])cc21)Nc1nnc(S)s1`: 1.25 µM; for `NNC(=O)Nc1n[nH]c(=S)s1`: 9.3 µM.
On Carbonic anhydrase 9, `O=C(N/N=C/c1ccc([N+](=O)[O-])cc1)Nc1n[nH]c(=S)s1` had a Ki of 10 µM.
Take `C/C(=N\NC(=O)Nc1n[nH]c(=S)s1)c1ccc(Cl)cc1`: the Ki on Carbonic anhydrase 1 is 144 µM; at Carbonic anhydrase 9 it was 8.55 µM.
In turn, `O=C(N/N=C1\C(=O)Nc2ccccc21)Nc1n[nH]c(=S)s1` returned a Ki at Carbonic anhydrase 9 of 9.4 µM.
For `O=C(N/N=C/c1ccccc1Cl)Nc1n[nH]c(=S)s1`, the Ki at Carbonic anhydrase 9 was found to be 29 µM; at Carbonic anhydrase 2 it was 412 µM.
Turning to `O=C(N/N=C/c1ccc(Cl)cc1)Nc1n[nH]c(=S)s1`, at Carbonic anhydrase 9, the Ki is 118 µM.
On the same count and under the same terms, the value for `O=C(N/N=C/c1ccc(F)cc1)Nc1n[nH]c(=S)s1` was 7.53 µM; that for `COc1cccc(/C=N/NC(=O)Nc2n[nH]c(=S)s2)c1` was 7.13 µM; that for `O=C(N/N=C/c1cccnc1)Nc1n[nH]c(=S)s1` was 5.05 µM.

Source of the values: ChEMBL document CHEMBL1137475, “Design, synthesis, and docking studies of new 1,3,4-thiadiazole-2-thione derivatives with carbonic anhydrase inhibitory activity” (Bioorg Med Chem, 2007).
